Test results taken from US20230190689A1, “METHODS AND COMPOSITIONS FOR INDUCING BROWN ADIPOGENESIS” (ENERGESIS PHARMACEUTICALS, INC., priority 2020, published 2023).
Counter-ions that a name gives are not always drawn.

System: CD34+ brown adipocyte progenitor cells
Assay: Multiplexed TaqMan real-time PCR of UCP1 and PPARγ2 mRNA (normalized to cyclophilin A) to quantify differentiation of CD34+ cells into brown adipocytes
Type: cell-based, human
Conditions: in vitro; first screen at 10 μM, actives retested at 1 nM to 50 μM
From the text: A robust method, previously disclosed, was used for detection of CD34+ cell differentiation into brown adipocytes by simultaneously quantifying mRNA species corresponding to the brown adipocyte marker UCP1, the adipocyte marker PPARγ2, and the “housekeeping” gene cyclophilin A which was used as the internal control.
This method permits analysis of a large number of samples to identify agents that enhance the differentiation of CD34+ cells into brown adipocytes. When differentiated into brown adipocytes, CD34+ cells express much higher levels of UCP1 and PPARγ2 mRNA for a given level of cyclophilin A. UCP1 and PPARγ2 mRNA levels normalized to cyclophilin A mRNA levels give an indication of the level of differentiation of the CD34+ cells into brown adipocytes, independent of the total number of cells in the sample.
Quantification of UCP1, PPARγ2 and cyclophilin A mRNA by multiplexed TaqMan real-time PCR was thus used to quantify differentiation of the CD34+ cells into brown adipocytes.
UCP1 is the key protein in brown adipocytes responsible for uncoupled respiration and is also highly specific for brown adipocyte differentiation. It is expressed exclusively by fully differentiated brown adipocytes and not by the CD34+ progenitor cells. We used a real-time semi-quantitative RT PCR-based assay for detection of UCP1 expression, in order to screen for brown adipocyte recruiters. […] The assay has the added advantage of allowing light microscopic visualization of the distinct morphological changes accompanying differentiation into brown adipocytes. This serves as further confirmation of differentiation.
(§1) Cells were seeded at 10,000 per cm^2 (48-well tissue culture, Chemglass #CLS-3500-048), cultured until confluency (1-4 days) at 37° C. in Endothelial cell growth medium-2 (EGM2) (BulletKit growth medium, Lonza #CC-3162) and until differentiation (6-12 more days). After 1-4 days in EGM2 media the cells were incubated with test agents (or positive controls) for 2-3 days (from day −3 or −2 to day 0). Rosiglitazone (1 μM) and rhBMP7 (6.3 nM) were used as reference agents (positive controls). Then (on day 0) the culture media (containing the test agents or positive controls) was removed, and minimal adipogenic medium (MDM) was added and the cells were left to differentiate of 6-12 days. The MDM media is a modification of the adipogenic media described by Rodriguez et al., and contains: DMEM/Ham's F-12 50/50 Mix (3.151 g/1, 17.5 mM D-glucose, 3.651 g/l L-glutamine) (Cellgro #10-090-CV), 5 μg/ml (0.86 μM) insulin, 1 μM dexamethasone, 100 μM 3-isobutyl-1-methylxanthine, 0.2 nM 3,3′,5-triiodo-L-thyronine, 10 μg/ml (127 nM) transferrin, and 1% penicillin-streptomycin. Adipocyte scores were determined by light microscopy and defined as the number of cells, on a per well basis, that contain multilocular lipid droplets, at the end of the differentiation of the cells, approximately 6 to 12 days following the end of compound treatment and switch into MDM media.
Total RNA was prepared from cells using PureLink RNA Isolation Kit (Invitrogen #12183-016). Alternatively, cells were simply lyzed by freezing (−80° C.). First strand cDNA were synthesized using the High Capacity cDNA Reverse Transcription kit (Applied Biosystems, Foster City, Calif.) and random primers.
Quantitative real-time PCR was performed using an Applied Biosystems StepOnePlus™ instrument, TaqMan Gene Expression Master Mix (Applied Biosystems #4369016), and custom TaqMan gene expression probes and primers for human uncoupling protein-1 “UCP1” (GenBank NM_021833) and for human peptidylprolyl isomerase A “cyclophilin A” (GenBank NM_021130).
Cyclophilin A was used as a control to account for any variations due to the efficiency of reverse transcription. Arbitrary units were determined by normalizing target mRNA levels to cyclophilin A mRNA levels (based on Cts).

SMILES | differentiation of brown adipocyte progenitor cells into brown adipocytes, as indicated by expression of UCP1 and PPARγ2
CN1c2ccccc2C(NCCCCCCC(=O)O)c2ccc(Cl)cc2S1(=O)=O (stereo not shown) [tianeptine, Tianeptine] | promote the differentiation of brown adipocyte progenitor cells into brown adipocytes
O=C(O)CCc1nc(-c2ccccc2)c(-c2ccccc2)o1 [oxaprozin, 3-(4,5-Diphenyloxazol-2-yl)propionic acid] | promote the differentiation of brown adipocyte progenitor cells into brown adipocytes
COc1ccc2c(c1)c(CC(=O)O)c(C)n2C(=O)c1ccc(Cl)cc1 [Indomethacin] | promote the differentiation of brown adipocyte progenitor cells into brown adipocytes
COc1ccc2c(c1)c(CC(=O)OCC(=O)O)c(C)n2C(=O)c1ccc(Cl)cc1 [Acemethacin] | promote the differentiation of brown adipocyte progenitor cells into brown adipocytes
COc1ccc2c(c1)C(=O)N(CCc1ccc(S(=O)(=O)NC(=O)NC3CCCCC3)cc1)C(=O)C2(C)C [gliquidone, Gliquidone] | promote the differentiation of brown adipocyte progenitor cells into brown adipocytes
CCC1=C(C)CN(C(=O)NCCc2ccc(S(=O)(=O)NC(=O)N[C@H]3CC[C@H](C)CC3)cc2)C1=O [Glimepiride] | promote the differentiation of brown adipocyte progenitor cells into brown adipocytes
O=C(O)c1cccnc1Nc1cccc(C(F)(F)F)c1 [Niflumic acid] | promote the differentiation of brown adipocyte progenitor cells into brown adipocytes
O=C(O)/C=C/c1ccc(Cn2ccnc2)cc1 [ozagrel, (2E)−3-{4-[(1H-imidazol-1-yl)methyl]phenyl}prop-2-enoic acid] | promote the differentiation of brown adipocyte progenitor cells into brown adipocytes
Cc1cccc(Nc2ccccc2C(=O)O)c1C [Mefenamic acid] | promote the differentiation of brown adipocyte progenitor cells into brown adipocytes
O=C(O)Cc1ccccc1Nc1c(Cl)cccc1Cl [Diclofenac] | promote the differentiation of brown adipocyte progenitor cells into brown adipocytes
Cc1ccc(Cl)c(Nc2ccccc2C(=O)O)c1Cl [Meclofenamate] | promote the differentiation of brown adipocyte progenitor cells into brown adipocytes

System: CD34+ cells
Assay: Light microscopy of CD34+ cells for brown adipocyte differentiation (multilocular lipid-containing cells)
Type: cell-based, human
Conditions: CD34+ cells 6 days following the end of compound treatment and switch into MDM media
Experimental: as §1
Pictures of cells were taken using a hand-held digital camera (Nikon Coolpix 950) and inverted microscope (Nikon TMS) used for cell culture observations; images were optimized using Paint.net version 4.0 functions for Auto-Level Brightness and Contrast.

SMILES | brown adipocyte formation by light microscopy
CN1c2ccccc2C(NCCCCCCC(=O)O)c2ccc(Cl)cc2S1(=O)=O (stereo not shown) [tianeptine, Tianeptine] | promote brown adipocyte formation
COc1ccc2c(c1)C(=O)N(CCc1ccc(S(=O)(=O)NC(=O)NC3CCCCC3)cc1)C(=O)C2(C)C [gliquidone, Gliquidone] | promote brown adipocyte formation
O=C(O)/C=C/c1ccc(Cn2ccnc2)cc1 [ozagrel, (2E)−3-{4-[(1H-imidazol-1-yl)methyl]phenyl}prop-2-enoic acid] | promote brown adipocyte formation

System: CD34+ cells
Assay: Quantification of UCP1 protein by fluorescence immunohistochemistry (IHC)
Type: cell-based, human
Conditions: not given
Experimental: Culturing and differentiation of CD34+ cells into brown adipocytes were performed using adipogenic differentiation medium lacking (Minimal Differentiation Medium, MDM) or containing 1 μM rosiglitazone (Reference Differentiation Medium, RDM). After 15 days of differentiation cells were fixed with 4% Paraformaldehyde PBS pH 7.4, and incubated with a UCP1 antibody (Abcam ab23841) and Alexafluor 488 goat anti-rabbit antibody to quantify relative UCP1 levels (green) according to standard protocols. Prior to fixation of cells, nuclei were labeled with 5 μM DAPI (blue) for 10 minutes. Each treatment condition was evaluated in triplicate in a 96-well plate corresponding to approximately 360-480 cells for each data point in total. The InCell 1000 Developer Toolbox software was used to develop an automated cell detection script to measure UCP1 signal intensity, using the nuclei and cytoplasm detection algorithms. As a readout, total intensity of UCP1 signal within the cell was used, normalized to cell number.

SMILES | agents identified by quantification of UCP1 protein by fluorescence IHC
CCN(CC)CCNC(=O)c1cc(S(C)(=O)=O)ccc1OC [Tiapride hydrochloride] | identified using this technique
CN(C)C(=N)N=C(N)N [Metformin] | identified using this technique
O=C(CCCN1CCC2(CC1)C(=O)NCN2c1ccccc1)c1ccc(F)cc1 [Spiperone] | identified using this technique
NC(N)=Nc1nc(CSCCC(N)=NS(N)(=O)=O)cs1 [Famotidine] | identified using this technique
COC(=O)[C@H]1[C@H]2C[C@@H]3c4[nH]c5cc(OC)ccc5c4CCN3C[C@H]2C[C@@H](OC(=O)c2cc(OC)c(OC)c(OC)c2)[C@@H]1OC [Reserpine] | identified using this technique
COc1cc2c(c(OC)c1OC)-c1ccc(OC)c(=O)cc1[C@@H](NC(C)=O)CC2 [Colchicine] | identified using this technique
CCOC(=O)Oc1c(OC)cc(C(=O)O[C@@H]2C[C@@H]3CN4CCc5c([nH]c6cc(OC)ccc56)[C@H]4C[C@@H]3[C@H](C(=O)OC)[C@H]2OC)cc1OC [Syrosingopine] | identified using this technique
CCSc1ccc2c(c1)N(CCCN1CCN(C)CC1)c1ccccc1S2 [Thiethylperazine] | identified using this technique
N=C(N)NC(=O)Cc1c(Cl)cccc1Cl [Guanfacine hydrochloride] | identified using this technique

System: DIO mice
Assay: DIO mouse study of metabolic health, once-daily oral gavage for 28 to 56 days
Type: in vivo, C57Bl/6 mice
Conditions: oral gavage once a day, bezafibrate 60 mg/kg, oxaprozin 50 mg/kg, MRI, vs vehicle
Experimental: Obesity and insulin resistance, an early stage in the development of type 2 diabetes (or pre-diabetes), was induced in C57Bl/6 mice by feeding the mice with a high fat diet (Research diet, Cat #D12492, 60/a fat kcal) for 12 weeks starting at 6 weeks of age. The mice were maintained at 22-23° C. with abundant bedding material, maintaining the animals in an environmental temperature close to their thermoneutrality, starting 2 weeks prior to the dosing period and for the full dosing period with a 12 h/12 h light/dark cycle.
Mice were dosed once per day by oral gavage (200 μl per mouse), first for 3 days with the vehicle (PBS+0.5% CMC+0.1% Tween-80) as acclimation for running into the study, then with either vehicle alone or testing material dissolved in the vehicle for […] (4 to 8 weeks).
Body weight was recorded every 3 days, body composition (fat and lean mass with EchoMRI) was assessed at the end of the study (University of Cincinnati Mouse Metabolic Phenotyping Center), blood glucose level (measured with a glucometer) was monitored 3-5 days before (baseline) and at the end of the dosing period.
At the end of the dosing period, animals were fasted for 6 hours and euthanized by CO2, blood was collected, and plasma was isolated and saved at −20° C. Plasma glucose, insulin and leptin levels were assessed 3-5 days before (baseline) and at the end of the dosing period (mice were fasted for 6 hours before all plasma collection) (University of Cincinnati Mouse Metabolic Phenotyping Center). Insulin sensitivity was determined using the homeostasis model assessment of insulin resistance (HOMA-IR). HOMA-IR=(plasma insulin [microIU/ml] x plasma glucose [mM])/22.5.
The mice were maintained on a high fat diet (60% calories from fat) throughout the study. An overnight fast was performed the last night of the study in preparation for glucose tolerance testing.

SMILES | body fat mass
O=C(O)CCc1nc(-c2ccccc2)c(-c2ccccc2)o1 [oxaprozin, 3-(4,5-Diphenyloxazol-2-yl)propionic acid] | significant decreases

Same assay, conditions: oral gavage once a day, bezafibrate 60 mg/kg, oxaprozin 50 mg/kg, vs vehicle

SMILES | body weight | glycemia | plasma insulin | plasma leptin
O=C(O)CCc1nc(-c2ccccc2)c(-c2ccccc2)o1 [oxaprozin, 3-(4,5-Diphenyloxazol-2-yl)propionic acid] | significant decreases | significant decreases | significant decreases | significant decreases
